Assays:
[1] = molecular target: BauB (Acinetobacter baumannii, UniProt Q76HK0); assay: BauB binding by intrinsic Trp fluorescence quenching
[2] = Fe binding in CAS assay; reported previously; cited from earlier work

For `C[C@@H]1ON(CCc2c[nH]cn2)C(=O)[C@H]1NC(=O)c1cccc(O)c1O` [compound 1, acinetobactin], the Kd [1] is listed as 300 ± 100 nM and the “CAS (+/-)” value [2] is listed as “+”.
